In patent US8293682B2, “Growth regulators for gramineous weeds” (Rikengreen Co., Ltd., priority 2008, dated 2012):

Assays:
[1] = tested on: annual bluegrass (Poa annua L.); assay: Test Example 3: number of emerged ears and leaves, poly-cup, two applications; assay type: in vivo; details: 2nd application after 29 days
Procedure: At the initial stage of the ear emergence of annual bluegrass (Poa annua L.) grown in a poly-cup of 11 cm×11 cm, benzyladenine (Beanine for painting; made by Rikengreen; containing 1% benzyladenine) and ethephon (Ethrel 10 soluble concentrate; Nissan Chemical Industries; containing 10% ethephon) were diluted in a predetermined amount of water, and a spreader (Riken Sprayzer (registered trade mark); made by Rikengreen) was added so as to be 1/1,000-fold concentration; the respectively diluted solutions were applied by atomization at a dose as indicated in Table (scattered solution: 200 mL/m^2), and after a lapse of 29 days, the 2nd application was carried out. Then, the number of emerged ears of annual bluegrass (Poa annua L.) in the cup was counted. Further, the number of leaves [Leaf] of annual bluegrass (Poa annua L.) was counted within the area of 6 cm×6 cm in the cup. The test was carried out serially. […] Dose means the amount at a single application.

lawn grasses = details: Non-patent document 2; cited from earlier work
[2] = tested on: annual bluegrass (Poa annua L.); assay: Test Example 4: field test in bent green turf, emerged ear number; assay type: in vivo; details: applied Day 0 and after 30 days
Procedure: In a bent green turf where annual bluegrasses (Poa annua L.) were grown, a test zone of 1 m×1 m was provided. Benzyladenine (Beanine for painting; made by Rikengreen; containing 1% benzyladenine) and ethephon (Ethrel 10 soluble concentrate; Nissan Chemical Industries; containing 10% ethephon) were diluted in a predetermined amount of water, and a spreader (Riken Sprayzer (registered trade mark); made by Rikengreen) was added so as to be 1/1,000-fold concentration. The respectively diluted solutions were applied to each test zone at the first application (Day 0) at a dose as indicated in Table, and after a lapse of 30 days the second application was carried out. The amount of solution scattered was 100 mL/m^2 both in the first and second applications. The number of ear emergence of annual bluegrass (Poa annua L.) within the area of 10×10 cm was counted at regular intervals at 3 spots per zone. […] Dose means the amount at a single application.

[3] = tested on: annual bluegrass (Poa annua L.); assay: Test Example 1: number of ear emergence, poly-cup, single or mixed application; assay type: in vivo
Procedure: At the initial stage of the ear emergence of annual bluegrass (Poa annua L.) grown in a poly-cup of 11 cm×11 cm, benzyladenine (Beanine for painting; made by Rikengreen; containing 1% benzyladenine) and ethephon (Ethrel 10 soluble concentrate; Nissan Chemical Industries; containing 10% ethephon) respectively as a single active ingredient or a mixture of them were diluted in a predetermined amount of water and applied by atomization so as to be a dose as indicated in Table. The application was carried out using 100 mL/m^2 of the solution to which a spreader (Riken Sprayzer (registered trade mark); made by Rikengreen) was added so as to be 1/1,000 fold. Inspection was made on Days 21, 32 and 45 after treatment with the agents to count the number of ear emergence in the cup. After completion of each inspection, clipping was performed.

[4] = tested on: annual bluegrass (Poa annua L.); assay: Test Example 2: count of ear emergence, poly-cup, applications at intervals / alternate application; assay type: in vivo; details: Ethephon 40 mg a.i./m^2 applied Day 10
Procedure: At the initial stage of the ear emergence of annual bluegrass (Poa annua L.) grown in a poly-cup of 11 cm×11 cm, benzyladenine (Beanine for painting; made by Rikengreen; containing 1% benzyladenine) and/or ethephon (Ethrel 10 soluble concentrate; Nissan Chemical Industries; containing 10% ethephon) were diluted in a predetermined amount of water, and a spreader (Riken Sprayzer (registered trade mark); made by Rikengreen) was added so as to be 1/1,000-fold concentration; the respectively diluted solutions were applied by atomization at a dose and intervals as indicated in Table (scattered solution: 200 mL/m^2), and the number of emerged ears of annual bluegrass (Poa annua L.) in the cup was counted through time. The test was carried out serially. […] The symbol “●” in Table indicates the treatment with benzyladenine, “◯” the treatment with ethephon, and “−” untreated. Dose means the amount at a single application.

[5] = Day 46, Benzyladenine + Ethephon 0 + 20 mg a.i./m^2
[6] = Day 46, Benzyladenine + Ethephon 0 + 40 mg a.i./m^2
[7] = Day 46, Benzyladenine + Ethephon 0 + 80 mg a.i./m^2

## O=P(O)(O)CCCl [Ethephon, 2-chloroethylphosphonic acid]
[1]; Day 23, Benzyladenine + Ethephon 0 + 20 mg a.i./m^2
  Ear (number of emerged ears in the cup): 30
[1]; Day 23, Benzyladenine + Ethephon 0 + 40 mg a.i./m^2
  Ear (number of emerged ears in the cup): 23
[1]; Day 23, Benzyladenine + Ethephon 0 + 80 mg a.i./m^2
  Ear (number of emerged ears in the cup): 13
[1]; [5]
  Ear (number of emerged ears in the cup): 34
  [Leaf] (number of leaves within 6 cm×6 cm): [90]
[1]; [6]
  Ear (number of emerged ears in the cup): 27
  [Leaf] (number of leaves within 6 cm×6 cm): [88]
[1]; [7]
  Ear (number of emerged ears in the cup): 29
  [Leaf] (number of leaves within 6 cm×6 cm): [79]
[1]; Day 53, Benzyladenine + Ethephon 0 + 20 mg a.i./m^2
  Ear (number of emerged ears in the cup): 34
[1]; Day 53, Benzyladenine + Ethephon 0 + 40 mg a.i./m^2
  Ear (number of emerged ears in the cup): 30
[1]; Day 53, Benzyladenine + Ethephon 0 + 80 mg a.i./m^2
  Ear (number of emerged ears in the cup): 41
Lawn grasses
  extension of stolon and weight in lawn grasses: promotes the extension of stolon and increase of the weight in lawn grasses
[2]; Day 22, Ethephon 80, Benzyladenine 0 mg a.i./m^2
  Ear (mean emerged ear number within 10×10 cm): 53.7
[2]; Day 22, Ethephon 160, Benzyladenine 0 mg a.i./m^2
  Ear (mean emerged ear number within 10×10 cm): 25.0
[2]; Day 41, Ethephon 80, Benzyladenine 0 mg a.i./m^2
  Ear (mean emerged ear number within 10×10 cm): 57.3
[2]; Day 41, Ethephon 160, Benzyladenine 0 mg a.i./m^2
  Ear (mean emerged ear number within 10×10 cm): 24.3
[2]; Day 61, Ethephon 80, Benzyladenine 0 mg a.i./m^2
  Ear (mean emerged ear number within 10×10 cm): 68.7
[2]; Day 61, Ethephon 160, Benzyladenine 0 mg a.i./m^2
  Ear (mean emerged ear number within 10×10 cm): 59.0
[3]; 21 Days after Application, Benzyladenine 0, Ethephon 40 mg a.i./m^2
  number of ear emergence in the cup: 43
[3]; 21 Days after Application, Benzyladenine 0, Ethephon 80 mg a.i./m^2
  number of ear emergence in the cup: 47
[3]; 21 Days after Application, Benzyladenine 0, Ethephon 160 mg a.i./m^2
  number of ear emergence in the cup: 28
[3]; 21 Days after Application, Benzyladenine 0, Ethephon 240 mg a.i./m^2
  number of ear emergence in the cup: 29
[3]; 21 Days after Application, Benzyladenine 0, Ethephon 320 mg a.i./m^2
  number of ear emergence in the cup: 19
[3]; 32 Days after Application, Benzyladenine 0, Ethephon 40 mg a.i./m^2
  number of ear emergence in the cup: 38
[3]; 32 Days after Application, Benzyladenine 0, Ethephon 80 mg a.i./m^2
  number of ear emergence in the cup: 41
[3]; 32 Days after Application, Benzyladenine 0, Ethephon 160 mg a.i./m^2
  number of ear emergence in the cup: 32
[3]; 32 Days after Application, Benzyladenine 0, Ethephon 240 mg a.i./m^2
  number of ear emergence in the cup: 19
[3]; 32 Days after Application, Benzyladenine 0, Ethephon 320 mg a.i./m^2
  number of ear emergence in the cup: 15
[3]; 45 Days after Application, Benzyladenine 0, Ethephon 40 mg a.i./m^2
  number of ear emergence in the cup: 54
[3]; 45 Days after Application, Benzyladenine 0, Ethephon 80 mg a.i./m^2
  number of ear emergence in the cup: 51
[3]; 45 Days after Application, Benzyladenine 0, Ethephon 160 mg a.i./m^2
  number of ear emergence in the cup: 38
[3]; 45 Days after Application, Benzyladenine 0, Ethephon 240 mg a.i./m^2
  number of ear emergence in the cup: 39
[3]; 45 Days after Application, Benzyladenine 0, Ethephon 320 mg a.i./m^2
  number of ear emergence in the cup: 36
[4]; Day 25
  Count of ear emergence: 35
[4]; Day 33
  Count of ear emergence: 27
